Laboratory results taken from the supplement of paper PMC11061612.

Legend:
Assay in all cases: Bliss excess, mean over the matrix (fraction); higher = more synergy
[1] = test system: JVM-2 (B-Cell Non-Hodgkin's Lymphoma)
Summary of the method: (§1)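 Cell lines grown in DMEM/F12 or RPMI with 10% FBS were plated in 1536-well plates and held 24 hours at 37°C, 5% CO2 before 72 hours of exposure to two-drug dose matrices, with DMSO typically at 0.2%. CellTiter-Glo 2.0 luminescence gave viability, which was converted to inhibition. Vehicle wells were set to 0 and blank wells to 1. Combination Emax is the second-highest inhibition in the matrix, and Bliss excess is the observed combination effect minus the expected EA + EB − EA·EB, where EA and EB are the single-agent effects.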

[2] = test system: HCC1428 (Breast Carcinoma)
Summary of the method: as §1

[3] = test system: IM-9 (Non-Cancerous)
Summary of the method: as §1

[4] = test system: CAL-27 (Oral Cavity Carcinoma)
Summary of the method: as §1

[5] = test system: KYSE-140 (Esophageal Squamous Cell Carcinoma)
Summary of the method: as §1

[6] = test system: MDA-MB-436 (Breast Carcinoma)
Summary of the method: as §1

[7] = test system: HCC70 (Breast Carcinoma)
Summary of the method: as §1

[8] = test system: JIMT-1 (Breast Carcinoma)
Summary of the method: as §1

[9] = test system: HT55 (Colorectal Carcinoma)
Summary of the method: as §1

[10] = test system: HCC1395 (Breast Carcinoma)
Summary of the method: as §1

[11] = test system: SK-HEP-1 (Hepatocellular Carcinoma)
Summary of the method: as §1

[12] = test system: OACp4C (Esophageal Adenocarcinoma)
Summary of the method: as §1

[13] = test system: 22RV1 (Prostate Carcinoma)
Summary of the method: as §1

[14] = test system: 769-P (Kidney Carcinoma)
Summary of the method: as §1

[15] = test system: DMS-53 (Small Cell Lung Carcinoma)
Summary of the method: as §1

[16] = test system: GCT (Other Solid Carcinomas)
Summary of the method: as §1

[17] = test system: EB2 (Burkitt's Lymphoma)
Summary of the method: as §1

[18] = test system: Jurkat (T-Lymphoblastic Leukemia)
Summary of the method: as §1

[19] = test system: CESS (Acute Myeloid Leukemia)
Summary of the method: as §1

[20] = test system: KP-N-YN (Neuroblastoma)
Summary of the method: as §1

Row | Structure (SMILES) | Bliss excess [1] | Bliss excess [2] | Bliss excess [3] | Bliss excess [4] | Bliss excess [5] | Bliss excess [6] | Bliss excess [7] | Bliss excess [8] | Bliss excess [9] | Bliss excess [10] | Bliss excess [11] | Bliss excess [12] | Bliss excess [13] | Bliss excess [14] | Bliss excess [15] | Bliss excess [16] | Bliss excess [17] | Bliss excess [18] | Bliss excess [19] | Bliss excess [20]
1 | CN(C)CCCOc1ccc(-c2ccc3ncc4c(c3c2)n(C2CCOCC2)c(=O)n4C)cn1 [AZD0156] + O=C(c1cc(Cc2n[nH]c(=O)c3ccccc23)ccc1F)N1CCN(C(=O)C2CC2)CC1 [Olaparib] (first compound max 3 µM, partner max 3 µM) | 0.0457 | 0.0051 | 0.275 | 0.0602 | -0.0069 | -0.0232 | -0.0548 | -0.0233 | 0.0254 | 0.0515 | 0.0576 | -0.0005 | 0.0313 | -0.0148 | -0.0283 | 0.0068 | 0.0892 | 0.174 | 0.075 | 
2 | C=CCn1c(=O)c2cnc(Nc3ccc(N4CCN(C)CC4)cc3)nc2n1-c1cccc(C(C)(C)O)n1 [AZD1775] + C1CN(CCC1(C(=O)N[C@@H](CCO)C2=CC=C(C=C2)Cl)N)C3=NC=NC4=C3C=CN4 [Capivasertib] (first compound max 3 µM, partner max 3 µM) | -0.0591 | -0.0203 | -0.0157 | -0.0197 | -0.0859 | 0.0064 | -0.0235 | 0.0069 | -0.125 | -0.0085 | 0.0958 | 0.0005 | -0.0348 | -0.0475 | -0.007 | 0.004 | -0.0204 | 0.185 | -0.0359 | 
3 | C=CCn1c(=O)c2cnc(Nc3ccc(N4CCN(C)CC4)cc3)nc2n1-c1cccc(C(C)(C)O)n1 [AZD1775] + O=C(c1cc(Cc2n[nH]c(=O)c3ccccc23)ccc1F)N1CCN(C(=O)C2CC2)CC1 [Olaparib] (first compound max 1 µM, partner max 10 µM) | 0.0055 | -0.0279 | -0.0305 | -0.0431 | -0.0418 | -0.0077 | -0.0479 | -0.0795 | 0.0391 | -0.0557 |  | -0.055 | -0.0296 | -0.0578 | -0.0715 | -0.0327 | -0.019 | -0.0088 | -0.0054 | -0.144
4 | Cc1c2c(nn1C)CSCc1cc(n(C)n1)CSc1cc(c3ccccc3c1)OCCCc1c(C(=O)O)n(C)c3c-2c(Cl)ccc13 [AZD5991] + CN(C)CCCOc1ccc(-c2ccc3ncc4c(c3c2)n(C2CCOCC2)c(=O)n4C)cn1 [AZD0156] (first compound max 1 µM, 7x7, partner max 1 µM) | -0.0266 | -0.0089 | -0.0637 | -0.0227 | -0.0063 | -0.0369 | -0.0028 | -0.0129 | 0.0318 |  | 0.0098 | 0.0162 | -0.167 | -0.0089 | 0.0854 | 0.0338 | -0.0423 | -0.0219 | -0.026 | -0.0752
5 | Cc1c2c(nn1C)CSCc1cc(n(C)n1)CSc1cc(c3ccccc3c1)OCCCc1c(C(=O)O)n(C)c3c-2c(Cl)ccc13 [AZD5991] + Cn1cnc2c(F)c(Nc3ccc(Br)cc3Cl)c(C(=O)NOCCO)cc21 [Selumetinib] (first compound max 1 µM, 7x7, partner max 3 µM) | 0.0529 | -0.0185 | 0.0092 | 0.0086 | -0.015 | -0.0127 | 0.099 | -0.014 | 0.043 | 0.0152 | -0.0484 | 0.143 | 0.0253 | -0.035 | 0.0572 | 0.0058 | -0.0046 | 0.0294 |  | -0.0059
6 | C[C@@H](Nc1cc(F)cc(F)c1)c1cc(C(=O)N(C)C)cc2c(=O)cc(N3CCOCC3)oc12 [AZD8186] + CC(=O)c1c(C)c2cnc(Nc3ccc(N4CCNCC4)cn3)nc2n(C2CCCC2)c1=O [Palbociclib] (first compound max 10 µM, 7x7, partner max 10 µM) |  |  | 0.112 |  |  | -0.0039 | 0.0225 |  |  | 0.063 | -0.0155 |  | -0.0421 | 0.0354 |  |  | 0.0045 |  |  | 0.0108
7 | C[C@@H](Oc1cc(-c2cnn(C3CCNCC3)c2)cnc1N)c1c(Cl)ccc(F)c1Cl [Crizotinib] + CC1=C(C(=CC=C1)Cl)NC(=O)C2=CN=C(S2)NC3=CC(=NC(=N3)C)N4CCN(CC4)CCO [Dasatinib] (first compound max 10 µM, 7x7, partner max 2 µM) |  |  | 0.0001 |  |  | -0.0418 | -0.0407 |  |  | 0.0615 | -0.0098 |  | -0.0187 | -0.0405 |  |  | 0.0112 |  |  | -0.0895
8 | C[C@@H](Oc1cc(-c2cnn(C3CCNCC3)c2)cnc1N)c1c(Cl)ccc(F)c1Cl [Crizotinib] + Cn1cnc2c(F)c(Nc3ccc(Br)cc3Cl)c(C(=O)NOCCO)cc21 [Selumetinib] (first compound max 10 µM, 7x7, partner max 10 µM) |  |  | -0.009 |  |  | -0.005 | 0.0191 |  |  | -0.0786 | -0.0968 |  | 0.0331 | -0.0213 |  |  | -0.0748 |  |  | -0.105
9 | CS(=O)(=O)CCNCc1ccc(-c2ccc3ncnc(Nc4ccc(OCc5cccc(F)c5)c(Cl)c4)c3c2)o1 [Lapatinib] + Cn1cnc2c(F)c(Nc3ccc(Br)cc3Cl)c(C(=O)NOCCO)cc21 [Selumetinib] (first compound max 10 µM, 7x7, partner max 10 µM) |  |  | -0.0826 |  |  | -0.0587 | 0.0408 |  |  | -0.0343 | -0.0163 |  | -0.045 | 0.0368 |  |  | -0.0474 |  |  | -0.0666
10 | CS(=O)(=O)CCNCc1ccc(-c2ccc3ncnc(Nc4ccc(OCc5cccc(F)c5)c(Cl)c4)c3c2)o1 [Lapatinib] + NC1(c2ccc(-c3nc4ccn5c(=O)[nH]nc5c4cc3-c3ccccc3)cc2)CCC1 [MK-2206] (first compound max 10 µM, 7x7, partner max 10 µM) |  | 0.0023 | 0.0096 |  |  | 0.0323 | 0.024 |  |  | -0.0376 | -0.0936 |  | -0.0139 | 0.0372 | 0.0185 |  | -0.0348 |  |  | 0.0876
11 | O=C(c1cc(Cc2n[nH]c(=O)c3ccccc23)ccc1F)N1CCN(C(=O)C2CC2)CC1 [Olaparib] + CC1(C)CCC(CN2CCN(c3ccc(C(=O)NS(=O)(=O)c4ccc(NCC5CCOCC5)c([N+](=O)[O-])c4)c(Oc4cnc5[nH]ccc5c4)c3)CC2)=C(c2ccc(Cl)cc2)C1 [Venetoclax] (first compound max 10 µM, 7x7, partner max 1 µM) |  |  | 0.112 |  |  | -0.0518 | -0.0472 |  |  | -0.0396 | -0.0619 |  | -0.0622 | 0.0116 |  |  | -0.0324 |  |  | 0.186
12 | O=C(c1cc(Cc2n[nH]c(=O)c3ccccc23)ccc1F)N1CCN(C(=O)C2CC2)CC1 [Olaparib] + CN(CC[C@H](CSC1=CC=CC=C1)NC2=C(C=C(C=C2)S(=O)(=O)NC(=O)C3=CC=C(C=C3)N4CCC(CC4)[C@H](C5=CC=CC=C5C6=CC=C(C=C6)Cl)O)S(=O)(=O)C(F)(F)F)CCO [AZD4320] (first compound max 10 µM, 7x7, partner max 1 µM) |  |  | 0.141 |  |  | -0.0288 | 0.0129 |  |  | -0.0335 | 0.0491 |  | -0.0864 | -0.0143 |  |  | -0.0537 |  |  | 0.0322
13 | O=C(c1cc(Cc2n[nH]c(=O)c3ccccc23)ccc1F)N1CCN(C(=O)C2CC2)CC1 [Olaparib] + COc1nnc2ccc(N3CCC(c4ccc(OCCN5CCN(C)C(=O)[C@H]5C)cc4)CC3)nn12 [AZD5153] (first compound max 10 µM, 7x7, partner max 1 µM) |  |  | 0.0107 |  |  | -0.0247 | -0.0402 |  |  | -0.0658 | 0.0116 |  | -0.0312 | -0.0374 |  |  | -0.0329 |  |  | -0.0142
14 | O=C(c1cc(Cc2n[nH]c(=O)c3ccccc23)ccc1F)N1CCN(C(=O)C2CC2)CC1 [Olaparib] + Cc1c2c(nn1C)CSCc1cc(n(C)n1)CSc1cc(c3ccccc3c1)OCCCc1c(C(=O)O)n(C)c3c-2c(Cl)ccc13 [AZD5991] (first compound max 10 µM, 7x7, partner max 1 µM) |  |  | 0.0865 |  |  | -0.0211 | -0.0185 |  |  | -0.016 | -0.0101 |  | -0.0012 | 0.0074 |  |  | -0.0266 |  |  | -0.068
15 | CCc1c2c(nc3ccc(O)cc13)-c1cc3c(c(=O)n1C2)COC(=O)[C@]3(O)CC [SN-38] + O=C(c1cc(Cc2n[nH]c(=O)c3ccccc23)ccc1F)N1CCN(C(=O)C2CC2)CC1 [Olaparib] (first compound max 0.3 µM, 7x7, partner max 10 µM) | 0.115 |  | 0.0871 |  |  | 0.0627 | 0.0458 | 0.035 | 0.0966 | 0.0315 | 0.0077 | 0.0413 | 0.0497 | 0.0592 | 0.0457 | 0.103 | 0.0348 |  | 0.0785 | -0.0038
16 | Cc1nc(-c2cn3c(n2)-c2ccc(-c4cnn(C(C)(C)C(N)=O)c4)cc2OCC3)n(C(C)C)n1 [Taselisib] + O=C(Nc1ccc2[nH]nc(-c3ccncc3)c2c1)[C@@H]1CCN(CC(=O)N2CCN(c3ccc(-c4ncccn4)cc3)CC2)C1 [SCH772984] (first compound max 10 µM, 7x7, partner max 5 µM) |  |  | -0.0407 |  |  | -0.0028 | 0.0593 |  |  | 0.0294 | 0.0372 |  | 0.0502 | 0.0852 |  |  | 0.0182 |  |  | 0.0278
17 | CC1(C)CCC(CN2CCN(c3ccc(C(=O)NS(=O)(=O)c4ccc(NCC5CCOCC5)c([N+](=O)[O-])c4)c(Oc4cnc5[nH]ccc5c4)c3)CC2)=C(c2ccc(Cl)cc2)C1 [Venetoclax] + CS(=O)(=O)CCNCc1ccc(-c2ccc3ncnc(Nc4ccc(OCc5cccc(F)c5)c(Cl)c4)c3c2)o1 [Lapatinib] (first compound max 1 µM, 7x7, partner max 10 µM) |  |  | 0.0902 |  |  | -0.0222 | -0.0318 |  |  | -0.0509 | 0.0013 |  | -0.0688 | 0.0871 |  |  | -0.039 |  |  | -0.0157
